The record followed here is US20260022143A1, “Cyclic Peptide Inhibitors of IL-23” (JANSSEN PHARMACEUTICA NV, priority 2022, published 2026).

Starred links: 1 amine or outer side, 2 acyl side, 3 side chain; linkers in the order of their positions; H or OH if unused. Positions of bridges follow the written chain, without caps; N, C: chain ends. Non-standard residues stand in square brackets, D forms with d. Residues, ends and D or L forms follow the SMILES beside them. Groups on a side chain read outwards from the residue. *: point of attachment. Trp(7-(3-AcNH-Ph)) = CC(=O)Nc1cccc(-c2cccc3c(C[C@H](N)C(=O)O)c[nH]c23)c1; X51 = C[N+](C)(C)CCCc1cn(-c2ccc(C[C@H](N[*:1])C(=O)[*:2])cc2)nn1; Me3N+(CH2)2O(CH2)2O(CH2)2CO = C[N+](C)(C)CCOCCOCCC(=O)*; PEG12 = NCCOCCOCCOCCOCCOCCOCCOCCOCCOCCOCCOCCOCCC(=O)O; CH2CH2OCH2CH2OCH2CH2NMe3+ = C[N+](C)(C)CCOCCOCC*; Trp(7-Me) = Cc1cccc2c(C[C@H](N)C(=O)O)c[nH]c12; Hexanoyl(6-NMe3+) = C[N+](C)(C)CCCCCC(=O)*; X30 = C[N+](C)(C)CCOCCOCCOCCOCc1cn(CC*)nn1; dLys(Me3) = C[N+](C)(C)CCCC[C@@H](N)C(=O)O; 3Pal(5-Me) = Cc1cncc(C[C@H](N)C(=O)O)c1; γGlu = O=C(O)[C@H](CCC(=O)[*:2])N[*:1]; 2Nal = N[C@@H](Cc1ccc2ccccc2c1)C(=O)O; AEF = NCCOc1ccc(C[C@H](N)C(=O)O)cc1; 3Pal = N[C@@H](Cc1cccnc1)C(=O)O; Ethyl(2-guanidino) = N=C(N)NCC*; Myristoyl = CCCCCCCCCCCCCC(=O)*; Lys(Me) = CNCCCC[C@H](N)C(=O)O; NMeK = CN[C@@H](CCCCN)C(=O)O; Pen = CC(C)(S)[C@H](N)C(=O)O; Lauroyl = CCCCCCCCCCCC(=O)*; Thp = NC1(C(=O)O)CCOCC1; X3 = C[N+](C)(C)CCCCC*; AEEA = NCCOCCOCC(=O)O; Me2NCH2CH2 = CN(C)CC*; Sar = CNCC(=O)O

The data set in a line: Exposed Polar Surface Area (EPSA). The class given is physicochemical. Particulars: SFC on Chirex 3014 column; sample 1 mM DMSO stock; read-out: EPSA. The procedure, abridged: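 SFC retention on a Chirex 3014 (S-valine/(R)-1-(α-naphthyl)ethylamine) column at 35 °C, 4 mL/min, 14 MPa outlet, 5–60% methanol/20 mM ammonium formate gradient in CO2. Retention times converted to EPSA (Å²) via linear calibration with 8 standards; samples from 1 mM DMSO stock, run in duplicate.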
With `CCCCCCCCCCCC(=O)N[C@@H](CCC(=O)NCCOCCOCC(=O)NCCOCCOCC(=O)NCCCC[C@@H]1NC(=O)[C@@H](NC(=O)[C@@H](CCCCNC(=O)COCCOCCNC(=O)COCCOCCNC(=O)CC[C@H](NC(=O)CCCCCCCCCCC)C(=O)O)NC(=O)CCOCCOCC[N+](C)(C)C)C(C)(C)SSC(C)(C)[C@@H](C(=O)N[C@@H](Cc2ccc(OCCCCC[N+](C)(C)C)cc2)C(=O)N[C@@H](Cc2ccc3ccccc3c2)C(=O)NC2(C(=O)N[C@@H](CCCCN(C)C(C)=O)C(=O)N[C@@H](CC(N)=O)C(=O)N[C@@H](Cc3cccnc3)C(=O)N(C)CC(=O)N(C)C)CCOCC2)NC(=O)[C@H](CCCCN(C)C(C)=O)NC(=O)[C@H](Cc2c[nH]c3c(C)cccc23)NC(=O)[C@H]([C@@H](C)O)NC1=O)C(=O)O` [compound 380, cPEG3aCO-k(PEG2PEG2gEC12)-Pen(3)-K(PEG2PEG2gEC12)-T-7MeW-K(NMeAc)-Pen(3)-TMAPF-2Nal-THP-K(NMeAc)-N-3Pya-Sar-CON(Me)2] ({Me3N+(CH2)2O(CH2)2O(CH2)2CO}-[dK]([AEEA-AEEA-γGlu-Lauroyl])[Pen]K([AEEA-AEEA-γGlu-Lauroyl])T[Trp(7-Me)][Lys(Me)](Ac)[Pen]Y(X3)[2Nal][Thp][Lys(Me)](Ac)N[3Pal][Sar]-NMe2; disulfide 2-7), the EPSA amounted to 171 A^2.
The value for `CC(=O)NCCCC[C@@H]1NC(=O)[C@H](Cc2c[nH]c3c(-c4cccc(NC(C)=O)c4)cccc23)NC(=O)[C@H]([C@@H](C)O)NC(=O)[C@H](CC(N)=O)NC(=O)[C@@H](NC(=O)[C@@H](CCCC[N+](C)(C)C)NC(C)=O)C(C)(C)SSC(C)(C)[C@@H](C(=O)N[C@@H](Cc2ccc(OCCN)cc2)C(=O)N[C@@H](Cc2ccc3ccccc3c2)C(=O)NC2(C(=O)N[C@@H](CCC(=O)O)C(=O)N[C@@H](CC(N)=O)C(=O)N[C@@H](Cc3cncc(C)c3)C(=O)N(C)CC(N)=O)CCOCC2)NC1=O` [compound 535, MeCO-k(Me)3-Pen(3)-N-T-7(3NAcPh)W-K(Ac)-Pen(3)-AEF-2Nal-THP-E-N-5MePyridinAla-Sar-CONH2] (Ac-[dLys(Me3)][Pen]NT[Trp(7-(3-AcNH-Ph))]K(Ac)[Pen][AEF][2Nal][Thp]EN[3Pal(5-Me)][Sar]-NH2; disulfide 2-7) was 190 A^2; that for `CC(=O)N[C@@H]1C(=O)N[C@@H](CC(=O)N(C)C)C(=O)N[C@@H]([C@@H](C)O)C(=O)N[C@@H](Cc2c[nH]c3c(C)cccc23)C(=O)N[C@@H](COCCOCC[N+](C)(C)C)C(=O)N[C@H](C(=O)N[C@@H](Cc2ccc(OCCOCCOCC[N+](C)(C)C)cc2)C(=O)N[C@@H](Cc2ccc3ccccc3c2)C(=O)NC2(C(=O)N[C@@H](COCCOCC[N+](C)(C)C)C(=O)N[C@@H](CC(N)=O)C(=O)N[C@@H](Cc3cccnc3)C(=O)N(C)CC(=O)N(C)C)CCOCC2)C(C)(C)SSC1(C)C` (relative stereo) [compound 256, MeCO-Pen(3)-N(N(Me)2)-T-7MeW-APEG2Ser(S*)-Pen(3)-APEG3F-2Nal-THP-APEG2Ser(S*)-N-3Pya-Sar-CON(Me)2] was 142 A^2; that for `CC(=O)NCCCC[C@@H]1NC(=O)[C@H](Cc2c[nH]c3c(C)cccc23)NC(=O)[C@H]([C@@H](C)O)NC(=O)[C@H](CC(N)=O)NC(=O)[C@@H](NC(=O)[C@@H](CCCNC(=N)N)NC(=O)CCOCCOCC[N+](C)(C)C)C(C)(C)SSC(C)(C)[C@@H](C(=O)N[C@@H](Cc2ccc(OCCNC(=N)N)cc2)C(=O)N[C@@H](Cc2ccc3ccccc3c2)C(=O)NC2(C(=O)N[C@@H](CCC(=O)O)C(=O)N[C@@H](CC(N)=O)C(=O)N[C@@H](Cc3cncc(C)c3)C(=O)N(C)CC(N)=O)CCOCC2)NC1=O` [compound 508, cPEG3aCO-r-Pen(3)-N-T-7MeW-K(Ac)-Pen(3)-AEF(G)-2Nal-THP-E-N-5MePyridinAla-Sar-CONH2] ({Me3N+(CH2)2O(CH2)2O(CH2)2CO}-[dR][Pen]NT[Trp(7-Me)]K(Ac)[Pen]Y(Ethyl(2-guanidino))[2Nal][Thp]EN[3Pal(5-Me)][Sar]-NH2; disulfide 2-7) was 197 A^2.
With `CC(=O)NCCCC[C@@H]1NC(=O)[C@H](Cc2c[nH]c3c(-c4cccc(NC(C)=O)c4)cccc23)NC(=O)[C@H]([C@@H](C)O)NC(=O)[C@H](CC(N)=O)NC(=O)[C@@H](NC(=O)[C@@H](CCCC[N+](C)(C)C)NC(C)=O)C(C)(C)SSC(C)(C)[C@@H](C(=O)N[C@@H](Cc2ccc(OCCN)cc2)C(=O)N[C@@H](Cc2ccc3ccccc3c2)C(=O)NC2(C(=O)N[C@@H](CCCCNC(C)=O)C(=O)N[C@@H](CC(N)=O)C(=O)N[C@@H](Cc3cccnc3)C(=O)N(C)CC(N)=O)CCOCC2)NC1=O` [compound 449] (Ac-[dLys(Me3)][Pen]NT[Trp(7-(3-AcNH-Ph))]K(Ac)[Pen][AEF][2Nal][Thp]K(Ac)N[3Pal][Sar]-NH2; disulfide 2-7), the EPSA was 176 A^2.
Next, `CC(=O)NCCCC[C@@H]1NC(=O)[C@H](Cc2c[nH]c3c(C)cccc23)NC(=O)[C@H]([C@@H](C)O)NC(=O)[C@H](CC(=O)N(C)C)NC(=O)[C@@H](NC(=O)CCOCCOCC[N+](C)(C)C)C(C)(C)SSC(C)(C)[C@@H](C(=O)N[C@@H](Cc2ccc(OCCOCCOCC[N+](C)(C)C)cc2)C(=O)N[C@@H](Cc2ccc3ccccc3c2)C(=O)NC2(C(=O)N[C@@H](CCCCN(C)C(C)=O)C(=O)N[C@@H](CC(N)=O)C(=O)N[C@@H](Cc3cccnc3)C(=O)N(C)CC(=O)N(C)C)CCOCC2)NC1=O` [compound 243, cPEG3aCO-Pen(3)-N(N(Me)2)-T-7MeW-K(Ac)-Pen(3)-APEG3F-2Nal-THP-K(NMeAc)-N-3Pya-Sar-CON(Me)2] ({Me3N+(CH2)2O(CH2)2O(CH2)2CO}-[Pen]D(NMe2)T[Trp(7-Me)]K(Ac)[Pen]Y(CH2CH2OCH2CH2OCH2CH2NMe3+)[2Nal][Thp][Lys(Me)](Ac)N[3Pal][Sar]-NMe2; disulfide 1-6): 142 A^2; `CC(=O)NCCCC[C@@H]1NC(=O)[C@H](Cc2c[nH]c3c(C)cccc23)NC(=O)[C@H]([C@@H](C)O)NC(=O)[C@H](CC(N)=O)NC(=O)[C@@H](NC(=O)[C@@H](CCCNC(=N)N)NC(=O)CCOCCOCCOCCOCCOCCOCCOCCOCCOCCOCCOCCOCCNC(C)=O)C(C)(C)SSC(C)(C)[C@@H](C(=O)N[C@@H](Cc2ccc(OCCN)cc2)C(=O)N[C@@H](Cc2ccc3ccccc3c2)C(=O)NC2(C(=O)N[C@@H](CCC(=O)O)C(=O)N[C@@H](CC(N)=O)C(=O)N[C@@H](Cc3cccnc3)C(=O)N(C)CC(N)=O)CCOCC2)NC1=O` [compound 38] (Ac-[PEG12][dR][Pen]NT[Trp(7-Me)]K(Ac)[Pen][AEF][2Nal][Thp]EN[3Pal][Sar]-NH2; disulfide 3-8): 172 A^2.
With `CC(=O)NCCCC[C@@H]1NC(=O)[C@H](Cc2c[nH]c3c(C)cccc23)NC(=O)[C@H]([C@@H](C)O)NC(=O)[C@H](CC(N)=O)NC(=O)[C@@H](NC(C)=O)C(C)(C)SSC(C)(C)[C@@H](C(=O)N[C@@H](Cc2ccc(OCCn3cc(COCCOCCOCCOCC[N+](C)(C)C)nn3)cc2)C(=O)N[C@@H](Cc2ccc3ccccc3c2)C(=O)NC2(C(=O)N[C@@H](CCCCNC(C)=O)C(=O)N[C@@H](CC(N)=O)C(=O)N[C@@H](Cc3cccnc3)C(=O)N(C)CC(N)=O)CCOCC2)NC1=O` [compound 252] (Ac-[Pen]NT[Trp(7-Me)]K(Ac)[Pen]Y(X30)[2Nal][Thp]K(Ac)N[3Pal][Sar]-NH2; disulfide 1-6), the EPSA was 148 A^2.
For `CCCCCCCCCCCCCC(=O)N[C@@H](CCC(=O)NCCOCCOCC(=O)NCCOCCOCC(=O)NCCCC[C@@H](NC(=O)CCOCCOCC[N+](C)(C)C)C(=O)N[C@@H]1C(=O)N[C@@H](CC(=O)N(C)C)C(=O)N[C@@H]([C@@H](C)O)C(=O)N[C@@H](Cc2c[nH]c3c(C)cccc23)C(=O)N[C@@H](CCCCNC(C)=O)C(=O)N[C@H](C(=O)N[C@@H](Cc2ccc(OCCCCC[N+](C)(C)C)cc2)C(=O)N[C@@H](Cc2ccc3ccccc3c2)C(=O)NC2(C(=O)N[C@@H](CCCCN(C)C(C)=O)C(=O)N[C@@H](CC(N)=O)C(=O)N[C@@H](Cc3cccnc3)C(=O)N(C)[C@@H](CCCCNC(=O)COCCOCCNC(=O)COCCOCCNC(=O)CC[C@H](NC(=O)CCCCCCCCCCCCC)C(=O)O)C(N)=O)CCOCC2)C(C)(C)SSC1(C)C)C(=O)O` [compound 347, cPEG3aCO-k(PEG2PEG2gEC14)-Pen(3)-N(N(Me)2)-T-7MeW-K(Ac)-Pen(3)-TMAPF-2Nal-THP-K(NMeac)-N-3Pya-NMeK(PEG2PEG2gEC14)-CONH2] ({Me3N+(CH2)2O(CH2)2O(CH2)2CO}-[dK]([AEEA-AEEA-γGlu-Myristoyl])[Pen]D(NMe2)T[Trp(7-Me)]K(Ac)[Pen]Y(X3)[2Nal][Thp][Lys(Me)](Ac)N[3Pal][NMeK]([AEEA-AEEA-γGlu-Myristoyl])-NH2; disulfide 2-7), the EPSA is 187 A^2.
Next, `CC(=O)NCCCC[C@@H]1NC(=O)[C@H](Cc2c[nH]c3c(C)cccc23)NC(=O)[C@H]([C@@H](C)O)NC(=O)[C@H](CC(N)=O)NC(=O)[C@@H](NC(C)=O)C(C)(C)SSC(C)(C)[C@@H](C(=O)N[C@@H](Cc2ccc(-n3cc(CCC[N+](C)(C)C)nn3)cc2)C(=O)N[C@@H](Cc2ccc3ccccc3c2)C(=O)NC2(C(=O)N[C@@H](CCCCNC(C)=O)C(=O)N[C@@H](CC(N)=O)C(=O)N[C@@H](Cc3cccnc3)C(=O)N(C)CC(N)=O)CCOCC2)NC1=O` [compound 423] (Ac-[Pen]NT[Trp(7-Me)]K(Ac)[Pen][X51][2Nal][Thp]K(Ac)N[3Pal][Sar]-NH2; disulfide 1-6): 161 A^2.
Next, `Cc1cccc2c(C[C@@H]3NC(=O)[C@H]([C@@H](C)O)NC(=O)[C@H](CC(=O)N(C)C)NC(=O)[C@@H](NC(=O)CCCCC[N+](C)(C)C)C(C)(C)SSC(C)(C)[C@@H](C(=O)N[C@@H](Cc4ccc(OCCN(C)C)cc4)C(=O)N[C@@H](Cc4ccc5ccccc5c4)C(=O)NC4(C(=O)N[C@@H](CCC(=O)N(C)C)C(=O)N[C@@H](CC(N)=O)C(=O)N[C@@H](Cc5cccnc5)C(=O)N(C)CC(=O)N(C)C)CCOCC4)NC(=O)[C@H](CCC(=O)N(C)C)NC3=O)c[nH]c12` [compound 91, 5cpaCO-Pen(3)-N(N(Me)2)-T-7MeW-Q(N(Me)2)-Pen(3)-AEF(N(Me)2)-2Nal-THP-Q(N(Me)2)-N-3Pya-Sar-CON(Me)2] ({Hexanoyl(6-NMe3+)}-[Pen]D(NMe2)T[Trp(7-Me)]E(NMe2)[Pen]Y(Me2NCH2CH2)[2Nal][Thp]E(NMe2)N[3Pal][Sar]-NMe2; disulfide 1-6): 145 A^2.
